ChEMBL document CHEMBL2440002, “The application of Heck reaction in the synthesis of guaianolide sesquiterpene lactones derivatives selectively inhibiting resistant acute leukemic cells” (Bioorg Med Chem Lett, 2013)
pIC50: −log10 of the molar value.

Columns and labels:
[1] = Cytotoxicity against human HL60/A cells after 72 hrs by MTT assay; type: functional, cell-based
HL-60 = test: Cytotoxicity against human HL60 cells after 72 hrs by MTT assay; type: functional, cell-based; conditions: HL-60, 72 h
[2] = Induction of apoptosis in human HL60/A cells assessed as early apoptotic cells at 10 uM after 24 hrs by annexin V/propidium iodide based flow cytometry (reference value: 2.66 %); type: functional
[3] = Induction of apoptosis in human HL60/A cells assessed as late apoptotic cells at 50 uM after 24 hrs by annexin V/propidium iodide based flow cytometry (reference value: 1.82 %); type: functional
[4] = Induction of apoptosis in human HL60/A cells assessed as early apoptotic cells at 50 uM after 24 hrs by annexin V/propidium iodide based flow cytometry (reference value: 2.66 %); type: functional
[5] = Induction of apoptosis in human HL60/A cells assessed as late apoptotic cells at 20 uM after 24 hrs by annexin V/propidium iodide based flow cytometry (reference value: 1.82 %); type: functional
[6] = Induction of apoptosis in human HL60/A cells assessed as viable cells at 50 uM after 24 hrs by annexin V/propidium iodide based flow cytometry (reference value: 95.2 %); type: functional; conditions: read-out: Activity
[7] = Induction of apoptosis in human HL60/A cells assessed as necrotic cells at 50 uM after 24 hrs by annexin V/propidium iodide based flow cytometry (reference value: 0.282 %); type: functional
[8] = Induction of apoptosis in human HL60/A cells assessed as late apoptotic cells at 10 uM after 24 hrs by annexin V/propidium iodide based flow cytometry (reference value: 1.82 %); type: functional
[9] = Induction of apoptosis in human HL60/A cells assessed as necrotic cells at 20 uM after 24 hrs by annexin V/propidium iodide based flow cytometry (reference value: 0.282 %); type: functional
[10] = Induction of apoptosis in human HL60/A cells assessed as viable cells at 20 uM after 24 hrs by annexin V/propidium iodide based flow cytometry (reference value: 95.2 %); type: functional; conditions: read-out: Activity
[11] = Induction of apoptosis in human HL60/A cells assessed as necrotic cells at 10 uM after 24 hrs by annexin V/propidium iodide based flow cytometry (reference value: 0.282 %); type: functional
[12] = Induction of apoptosis in human HL60/A cells assessed as viable cells at 10 uM after 24 hrs by annexin V/propidium iodide based flow cytometry (reference value: 95.2 %); type: functional; conditions: read-out: Activity
[13] = Induction of apoptosis in human HL60/A cells assessed as early apoptotic cells at 20 uM after 24 hrs by annexin V/propidium iodide based flow cytometry (reference value: 2.66 %); type: functional

SMILES	pIC50 [1]	pIC50 (HL-60)	further results
CC1=C2CC[C@@](C)(O)[C@@H]2[C@H]2OC(=O)/C(=C/c3ccccc3F)[C@@H]2CC1	< 4.30	< 4.30	–
CC[Si](CC)(CC)O[C@]1(C)CCC2=C(C)CC[C@H]3/C(=C/c4ccc(Cl)cc4)C(=O)O[C@@H]3[C@H]21	< 4.30	< 4.30	–
C=C1CC[C@H]2C(=C)CC[C@H]3/C(=C\c4cc(OC)c(OC)c(OC)c4)C(=O)O[C@@H]3[C@@H]12	< 4.30	< 4.30	–
CC1=C2CC[C@@](C)(O)[C@@H]2[C@H]2OC(=O)/C(=C/c3ccc(F)cc3)[C@@H]2CC1	< 4.30	< 4.30	–
CC[Si](CC)(CC)O[C@]1(C)CCC2=C(C)CC[C@H]3/C(=C/c4ccc(F)cc4)C(=O)O[C@@H]3[C@H]21	< 4.30	< 4.30	–
C=C1CC[C@H]2C(=C)CC[C@H]3/C(=C/c4cccc(C(F)(F)F)c4)C(=O)O[C@@H]3[C@@H]12	< 4.30	< 4.30	–
CC[Si](CC)(CC)O[C@]1(C)CCC2=C(C)CC[C@H]3/C(=C\c4ccc(Cl)cc4)C(=O)O[C@@H]3[C@H]21	< 4.30	< 4.30	–
C=C1CC[C@H]2C(=C)CC[C@H]3/C(=C/c4ccccc4F)C(=O)O[C@@H]3[C@@H]12	< 4.30	< 4.30	–
CCc1ccc(/C=C2\C(=O)O[C@H]3[C@H]2CCC(C)=C2CC[C@@](C)(O)[C@@H]23)cc1	< 4.30	< 4.30	–
C=C1CC[C@H]2C(=C)CC[C@H]3/C(=C\c4ccc(CC)cc4)C(=O)O[C@@H]3[C@@H]12	< 4.30	< 4.30	–
C=C1C(=O)O[C@H]2[C@H]1CCC(C)=C1CC[C@@](C)(O[Si](CC)(CC)CC)[C@@H]12	5.14	5.08	–
CC1=C2CC[C@@](C)(O)[C@@H]2[C@H]2OC(=O)/C(=C/c3cccc(F)c3)[C@@H]2CC1	4.49	< 4.30	–
CC[Si](CC)(CC)O[C@]1(C)CCC2=C(C)CC[C@H]3/C(=C\c4ccc(F)cc4)C(=O)O[C@@H]3[C@H]21	< 4.30	< 4.30	–
CC[Si](CC)(CC)O[C@]1(C)CCC2=C(C)CC[C@H]3/C(=C\c4ccccc4F)C(=O)O[C@@H]3[C@H]21	< 4.30	< 4.30	–
CCc1ccc(/C=C2/C(=O)O[C@H]3[C@H]2CCC(C)=C2CC[C@@](C)(O)[C@@H]23)cc1	5.21	4.51	Activity [2]: 3.14%; Activity [3]: 85.9%; Activity [4]: 1.5%; Activity [5]: 23.8%; viability at 50 µM [6]: 0.94%; Activity [7]: 11.7%; Activity [8]: 6.61%; Activity [9]: 5.51%; viability at 20 µM [10]: 66%; Activity [11]: 1.03%; viability at 10 µM [12]: 89.2%; Activity [13]: 4.66%
CC1=C2CC[C@@](C)(O)[C@@H]2[C@H]2OC(=O)/C(=C\c3ccc(Cl)cc3)[C@@H]2CC1	< 4.30	< 4.30	–
CC1=C2CC[C@@](C)(O)[C@@H]2[C@H]2OC(=O)/C(=C\c3cccc(F)c3)[C@@H]2CC1	< 4.30	< 4.30	–
CC1=C2CC[C@@](C)(O)[C@@H]2[C@H]2OC(=O)/C(=C/c3ccc(Cl)cc3)[C@@H]2CC1	< 4.30	< 4.30	–

SMILES	pIC50 [1]	pIC50 (HL-60)	further results
COc1cccc2c1C(=O)c1c(O)c3c(c(O)c1C2=O)C[C@@](O)(C(=O)CO)C[C@@H]3O[C@H]1C[C@H](N)[C@H](O)[C@H](C)O1 [DOXORUBICIN]	5.11	7.15	–
C=C1CC[C@H]2C(=C)CC[C@H]3/C(=C/c4ccc(Cl)cc4)C(=O)O[C@@H]3[C@@H]12	< 4.30	< 4.30	–
C=C1CC[C@H]2C(=C)CC[C@H]3/C(=C/c4ccccc4)C(=O)O[C@@H]3[C@@H]12	< 4.30	< 4.30	–
CC1=C2CC[C@@](C)(O)[C@@H]2[C@H]2OC(=O)/C(=C\c3ccc(F)cc3)[C@@H]2CC1	< 4.30	< 4.30	–
C=C1CC[C@H]2C(=C)CC[C@H]3/C(=C/c4cc(OC)c(OC)c(OC)c4)C(=O)O[C@@H]3[C@@H]12	< 4.30	< 4.30	–
C=C1CC[C@H]2C(=C)CC[C@H]3/C(=C\c4ccccc4)C(=O)O[C@@H]3[C@@H]12	< 4.30	< 4.30	–
C=C1CC[C@H]2C(=C)CC[C@H]3/C(=C/c4ccc(F)cc4)C(=O)O[C@@H]3[C@@H]12	< 4.30	< 4.30	–
C=C1CC[C@H]2C(=C)CC[C@H]3/C(=C\c4ccc(Cl)cc4)C(=O)O[C@@H]3[C@@H]12	< 4.30	< 4.30	–
CCc1ccc(/C=C2\C(=O)O[C@H]3[C@H]2CCC(C)=C2CC[C@@](C)(O[Si](CC)(CC)CC)[C@@H]23)cc1	4.72	< 4.30	–
CC1=C2CC[C@@](C)(O)[C@@H]2[C@H]2OC(=O)/C(=C\c3ccccc3F)[C@@H]2CC1	< 4.30	< 4.30	–
C=C1CC[C@H]2C(=C)CC[C@H]3/C(=C\c4cccc(C(F)(F)F)c4)C(=O)O[C@@H]3[C@@H]12	4.77	4.62	–
CCc1ccc(/C=C2/C(=O)O[C@H]3[C@H]2CCC(C)=C2CC[C@@](C)(O[Si](CC)(CC)CC)[C@@H]23)cc1	5.04	4.35	–
C=C1CC[C@H]2C(=C)CC[C@H]3/C(=C\c4ccccc4F)C(=O)O[C@@H]3[C@@H]12	< 4.30	< 4.30	–
C=C1CC[C@H]2C(=C)CC[C@H]3/C(=C/c4ccc(CC)cc4)C(=O)O[C@@H]3[C@@H]12	< 4.30	< 4.30	–
CC[Si](CC)(CC)O[C@]1(C)CCC2=C(C)CC[C@H]3/C(=C\c4cccc(F)c4)C(=O)O[C@@H]3[C@H]21	< 4.30	< 4.30	–
CC[Si](CC)(CC)O[C@]1(C)CCC2=C(C)CC[C@H]3/C(=C/c4ccccc4F)C(=O)O[C@@H]3[C@H]21	5.11	4.49	–
C=C1CC[C@H]2C(=C)CC[C@H]3/C(=C\c4ccc(F)cc4)C(=O)O[C@@H]3[C@@H]12	< 4.30	< 4.30	–
CC[Si](CC)(CC)O[C@]1(C)CCC2=C(C)CC[C@H]3/C(=C/c4cccc(F)c4)C(=O)O[C@@H]3[C@H]21	5.00	4.28	–
